Test results reported in US20080129961A1, “METHOD AND APPARATUS FOR MEASURING QUANTITY OF A FLUOROCHROME IN A BIOLOGICAL ENVIRONMENT” (priority 2006, published 2008).

Assays:
[1] = pH stability of ICG emission intensity; type: physicochemical
[2] = Solubility and fluorescence behaviour of ICG in serum and vitreous humor
Method: ICG (Acros Organics, Fair Lawn, N.J.) was dissolved in PBS, pH 7.4, with 0.1% Tween 20 at 25° C. to make the aqueous standards. Fluorescence of a series of 1:2 dilutions were made with a spectrofluorometer beginning with a maximum concentration of 100 ng/ml down to a “blank” comprising PBS, pH 7.4, with 0.1% Tween with essentially no ICG (only trace amounts).

Compound: CC1(C)C(/C=C/C=C/C=C/C=C2\N(CCCCS(=O)(=O)[O-])c3ccc4ccccc4c3C2(C)C)=[N+](CCCCS(=O)(=O)[O-])c2ccc3ccccc3c21.[Na+] [ICG, indocyanin green]
- pH range across which emission intensity is stable [1]: 5-10 pH
- solubility in serum and vitreous humor after pre-dissolution ([2]; first dissolved in PBS, pH 7.4, 0.1% Tween 20 (≧1000 ng/ml), then mixed with bovine vitreous humor or human serum): remain in solution
- spectra and quantum yield in serum and vitreous humor compared to ICG in PBS with 0.1% Tween 20 ([2]; first dissolved in PBS, pH 7.4, 0.1% Tween 20, then mixed with bovine vitreous humor or human serum): maintain its spectra and quantum yield
- solubility when mixed directly with serum or vitreous humor ([2]; mixed directly with serum or vitreous humor): not completely soluble
